Experiments:
[1] = tested on: IPOSS (annual morningglory); assay: Pre-plant incorporated (PPI) herbicidal activity, warm season; type: in vivo, Ipomoea spp.; details: PPI application
Procedure: (§1) In another set of tests, the pre-plant incorporated (PPI) activity of compounds of this invention was evaluated on the same species as for the pre-emergence tests described above. In the PPI tests the following procedure, designed to simulate PPI application, was used.
(§2) A pre-prepared topsoil mixture (described above) was placed in a pot and compacted to a depth of 1.0 to 1.25 cm from the top of the pot. Seeds of each of several monocotyledonous and dicotyledonous annual plant species were placed on top of the soil. A sufficient quantity of soil to cover the seeds and level fill the pot was weighed into an open container. A known amount of the test compound was dissolved or suspended in an organic solvent and applied by spraying to this cover soil. The cover soil was thoroughly mixed to distribute the test compound throughout the cover soil, and was then applied as a cover layer over the seeds. Untreated soil was used as a cover layer for control pots. After treatment the plants were placed in a greenhouse where they received 0.64 cm of overhead irrigation. All subsequent watering consisted of a light overhead mist and/or subirrigation as needed for germination and growth. Tables 9 and 10 below relate to warm season plant species which were placed after pre-emergence treatment in a greenhouse with a 30/21° C. day/night temperature regime. Tables 11 and 12 below relates to cool season plant species placed after pre-emergence treatment in a greenhouse or growth chamber with an 18/13° C. day/night temperature regime. Only the compounds of Examples 1, 6, 8, 11, 13 and 15-20 were included in PPI tests.
(§3) Approximately 14 days after planting and treating, the plants were observed and herbicidal efficacy recorded as percent inhibition by comparison with untreated plants.

CONAR (field bindweed) [2] = assay: as above; type: in vivo, Convolvulus arvensis; details: GR80 = lowest tested rate with 80% or greater inhibition, approx. 14 days after treating, 30/21° C.
Procedure: as §1, §2, §3

[3] = tested on: CIRAR (canada thistle (seedling)); assay: as above; type: in vivo, Cirsium arvense; details: GR80 = lowest tested rate with 80% or greater inhibition, approx. 14 days after treating, 30/21° C.
Procedure: as §1, §2, §3

POROL (common purslane) = assay: as above; type: in vivo, Portulaca oleracea; details: GR80 = lowest tested rate with 80% or greater inhibition, approx. 14 days after treating, 30/21° C.
Procedure: as §1, §2, §3

AVEFA (wild oat) = assay: Pre-emergence herbicidal activity, cool season; type: in vivo, Avena fatua; details: GR80 = lowest tested rate (300, 100, 30, 10 g/ha) with 80% or greater inhibition; approx. 14 days after treating; 18/13° C.
Method in brief: (§4)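 Seeds sown in sterilised fertilised topsoil received surface-applied compound in 50:50 acetone/water, typically at 300, 100, 30 and 10 g/ha, then greenhouse-grown at 30/21° C (warm-season species) or 18/13° C (cool-season species). Percent inhibition versus untreated plants was scored at about 14 days, giving GR80; an asterisk marks activity short of 80% at the top rate.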

KCHSC (kochia) = assay: Pre-plant incorporated (PPI) herbicidal activity, cool season; type: in vivo, Kochia scoparia; details: for PPI activity GR80, KCHSC: pre-plant incorporated, lowest tested rate with 80% or greater inhibition, about 14 days; for inhibition at 10 g/ha / inhibition at 30 g/ha / inhibition at 100 g/ha / inhibition at 300 g/ha / inhibition at 900 g/ha: Bassia scoparia, weed, PPI application, read-out: Percent inhibition KCHSC
Procedure: as §1, §2, §3

ABUTH (velvetleaf) = assay: Pre-emergence herbicidal activity, warm season; type: in vivo, Abutilon theophrasti; details: GR80 = lowest tested rate (300, 100, 30, 10 g/ha) with 80% or greater inhibition; approx. 14 days after treating; 30/21° C.
Method in brief: as §4

BROTE (downy brome) = assay: Pre-emergence herbicidal activity, cool season; type: in vivo, Bromus tectorum; details: GR80 = lowest tested rate (300, 100, 30, 10 g/ha) with 80% or greater inhibition; approx. 14 days after treating; 18/13° C.
Method in brief: as §4

CONAR (field bindweed) [4] = assay: Pre-emergence herbicidal activity, warm season; type: in vivo, Convolvulus arvensis; details: GR80 = lowest tested rate (300, 100, 30, 10 g/ha) with 80% or greater inhibition; approx. 14 days after treating; 30/21° C.
Method in brief: as §4

[5] = tested on: AGRRE (quackgrass (seedling)); assay: Pre-emergence herbicidal activity, cool season; type: in vivo, Elymus repens; details: GR80 = lowest tested rate (300, 100, 30, 10 g/ha) with 80% or greater inhibition; approx. 14 days after treating; 18/13° C.
Method in brief: as §4

DATST (jimsonweed) = assay: Pre-emergence herbicidal activity, warm season; type: in vivo, Datura stramonium; details: GR80 = lowest tested rate (300, 100, 30, 10 g/ha) with 80% or greater inhibition; approx. 14 days after treating; 30/21° C.
Method in brief: as §4

LOLMG (annual ryegrass) = assay: Pre-emergence herbicidal activity, cool season; type: in vivo, Lolium multiflorum; details: GR80 = lowest tested rate (300, 100, 30, 10 g/ha) with 80% or greater inhibition; approx. 14 days after treating; 18/13° C.
Method in brief: as §4

CCN(CC)C(=O)n1cnc(S(=O)(=O)C(F)(F)SCc2ccccc2)n1 [Example 10]
Percent inhibition IPOSS ([1]; 10 g/ha): 0%
Percent inhibition IPOSS ([1]; 30 g/ha): 0%
Percent inhibition IPOSS ([1]; 100 g/ha): 0%
Percent inhibition IPOSS ([1]; 300 g/ha): 0%
Percent inhibition IPOSS ([1]; 900 g/ha): 50%

CCN(CC)C(=O)n1cnc(S(=O)(=O)C(F)(F)SCC(=O)OC)n1 [Example 11]
PPI activity (GR80) CONAR (CONAR (field bindweed) [2]): 100 g/ha
Percent inhibition IPOSS ([1]; 10 g/ha): 0%
Percent inhibition IPOSS ([1]; 30 g/ha): 0%
Percent inhibition IPOSS ([1]; 100 g/ha): 0%
Percent inhibition IPOSS ([1]; 300 g/ha): 0%
Percent inhibition IPOSS ([1]; 900 g/ha): 0%
PPI activity (GR80) CIRAR [3]: 100 g/ha
PPI activity (GR80) POROL (POROL (common purslane)): 300 g/ha

CCN(CC)C(=O)n1cnc(S(=O)(=O)C(F)(F)SCCOC)n1 [Example 13]
PPI activity (GR80) CONAR (CONAR (field bindweed) [2]): * (activity observed, at least at highest rate, but <80% inhibition)
Percent inhibition IPOSS ([1]; 10 g/ha): 0%
Percent inhibition IPOSS ([1]; 30 g/ha): 0%
Percent inhibition IPOSS ([1]; 100 g/ha): 0%
Percent inhibition IPOSS ([1]; 300 g/ha): 10%
Percent inhibition IPOSS ([1]; 900 g/ha): 100%
PPI activity (GR80) CIRAR [3]: 100 g/ha
Pre-emergence activity (GR80) AVEFA (AVEFA (wild oat)): 300 g/ha
PPI activity GR80, KCHSC (KCHSC (kochia)): * (activity observed, at least at highest rate, but <80% inhibition)
Pre-emergence activity (GR80) ABUTH (ABUTH (velvetleaf)): 300 g/ha
PPI activity (GR80) POROL (POROL (common purslane)): 100 g/ha
Pre-emergence activity (GR80) BROTE (BROTE (downy brome)): 300 g/ha

CCN(CC)C(=O)n1cnc(S(=O)(=O)C(F)(F)C(F)(F)SC)n1 [Example 14]
Pre-emergence activity (GR80) CONAR (CONAR (field bindweed) [4]): * (activity observed, at least at highest rate, but <80% inhibition)
Pre-emergence activity (GR80) AVEFA (AVEFA (wild oat)): 300 g/ha
Pre-emergence activity (GR80) AGRRE [5]: * (activity observed, at least at highest rate, but <80% inhibition)

CCN(CC)C(=O)n1cnc(S(=O)(=O)C(F)(F)C(F)F)n1 [Example 16]
PPI activity (GR80) CONAR (CONAR (field bindweed) [2]): 100 g/ha
Percent inhibition IPOSS ([1]; 10 g/ha): 0%
Percent inhibition IPOSS ([1]; 30 g/ha): 0%
Percent inhibition IPOSS ([1]; 100 g/ha): 0%
Percent inhibition IPOSS ([1]; 300 g/ha): 0%
Percent inhibition IPOSS ([1]; 900 g/ha): 50%
Pre-emergence activity (GR80) CONAR (CONAR (field bindweed) [4]): 300 g/ha
Pre-emergence activity (GR80) DATST (DATST (jimsonweed)): 300 g/ha
PPI activity (GR80) CIRAR [3]: 30 g/ha
Pre-emergence activity (GR80) AVEFA (AVEFA (wild oat)): 300 g/ha
PPI activity GR80, KCHSC (KCHSC (kochia)): 30 g/ha
Pre-emergence activity (GR80) ABUTH (ABUTH (velvetleaf)): 300 g/ha
Pre-emergence activity (GR80) AGRRE [5]: * (activity observed, at least at highest rate, but <80% inhibition)
PPI activity (GR80) POROL (POROL (common purslane)): 10 g/ha
Pre-emergence activity (GR80) LOLMG (LOLMG (annual ryegrass)): 300 g/ha

C=CCC(F)(F)S(=O)(=O)c1ncn(C(=O)N(CC)CC)n1 [Example 17, 1-(N,N-diethylcarbamoyl)-3-[(1,1-difluoro-3-butenyl)sulfonyl]-1,2,4-triazole]
PPI activity (GR80) CONAR (CONAR (field bindweed) [2]): * (activity observed, at least at highest rate, but <80% inhibition)
PPI activity (GR80) CIRAR [3]: 300 g/ha
Pre-emergence activity (GR80) AVEFA (AVEFA (wild oat)): 100 g/ha
inhibition at 10 g/ha (KCHSC (kochia)): 70%
inhibition at 30 g/ha (KCHSC (kochia)): 100%
inhibition at 100 g/ha (KCHSC (kochia)): 100%
inhibition at 300 g/ha (KCHSC (kochia)): 100%
inhibition at 900 g/ha (KCHSC (kochia)): 100%
PPI activity GR80, KCHSC (KCHSC (kochia)): 30 g/ha
Pre-emergence activity (GR80) ABUTH (ABUTH (velvetleaf)): 300 g/ha
PPI activity (GR80) POROL (POROL (common purslane)): 30 g/ha
Pre-emergence activity (GR80) LOLMG (LOLMG (annual ryegrass)): 100 g/ha
Pre-emergence activity (GR80) BROTE (BROTE (downy brome)): 100 g/ha

C=C(C)CC(F)(F)S(=O)(=O)c1ncn(C(=O)N(CC)CC)n1 [Example 18]
PPI activity (GR80) CONAR (CONAR (field bindweed) [2]): 100 g/ha
Pre-emergence activity (GR80) DATST (DATST (jimsonweed)): 300 g/ha
PPI activity (GR80) CIRAR [3]: 30 g/ha
Pre-emergence activity (GR80) AVEFA (AVEFA (wild oat)): * (activity observed, at least at highest rate, but <80% inhibition)
inhibition at 10 g/ha (KCHSC (kochia)): 40%
inhibition at 30 g/ha (KCHSC (kochia)): 80%
inhibition at 100 g/ha (KCHSC (kochia)): 80%
inhibition at 300 g/ha (KCHSC (kochia)): 100%
inhibition at 900 g/ha (KCHSC (kochia)): 100%
Pre-emergence activity (GR80) ABUTH (ABUTH (velvetleaf)): * (activity observed, at least at highest rate, but <80% inhibition)
Pre-emergence activity (GR80) AGRRE [5]: 300 g/ha
PPI activity (GR80) POROL (POROL (common purslane)): 100 g/ha
Pre-emergence activity (GR80) LOLMG (LOLMG (annual ryegrass)): 300 g/ha
Pre-emergence activity (GR80) BROTE (BROTE (downy brome)): 300 g/ha

C=C(Br)CC(F)(F)S(=O)(=O)c1ncn(C(=O)N(CC)CC)n1 [Example 19]
PPI activity (GR80) CONAR (CONAR (field bindweed) [2]): 300 g/ha
Pre-emergence activity (GR80) CONAR (CONAR (field bindweed) [4]): * (activity observed, at least at highest rate, but <80% inhibition)
Pre-emergence activity (GR80) DATST (DATST (jimsonweed)): * (activity observed, at least at highest rate, but <80% inhibition)
PPI activity (GR80) CIRAR [3]: 300 g/ha
Pre-emergence activity (GR80) AVEFA (AVEFA (wild oat)): * (activity observed, at least at highest rate, but <80% inhibition)
inhibition at 10 g/ha (KCHSC (kochia)): 0%
inhibition at 30 g/ha (KCHSC (kochia)): 20%
inhibition at 100 g/ha (KCHSC (kochia)): 80%
inhibition at 300 g/ha (KCHSC (kochia)): 80%
inhibition at 900 g/ha (KCHSC (kochia)): 100%
Pre-emergence activity (GR80) AGRRE [5]: * (activity observed, at least at highest rate, but <80% inhibition)
PPI activity (GR80) POROL (POROL (common purslane)): 100 g/ha
Pre-emergence activity (GR80) LOLMG (LOLMG (annual ryegrass)): 300 g/ha
Pre-emergence activity (GR80) BROTE (BROTE (downy brome)): * (activity observed, at least at highest rate, but <80% inhibition)

Reference: US6461997B1, “Triazole sulfones having herbicidal activity” (Monsanto Technology LLC, priority 1999, dated 2002)
